Results from patent US9393317B2, “Peptide-conjugated oligonucleotide therapeutic and method of making and using same” (Sloan-Kettering Institute for Cancer Research, priority 2008, dated 2016).

How the values were obtained:
[1] = tested on: 4T1 (ATCC CRL-2539) tumor allograft; experiment: In vivo phage display panning, breast carcinoma model, tumor vascular homing phage; set-up: species or system mouse; details: tumors resected 5-7 h post phage injection, 3-4 rounds of panning
Experimental: (§1) To identify peptide sequences displaying homing potential to specific tumors or to the vasculature of specific tumors, in vivo phage display panning was performed. Utilizing commercially available M13-based phage libraries (PhD-7 Prod# E8100S and PhD-C7C E8120S, New England Biolabs, Ipswich, Mass.) phage were isolated that were enriched after 3-4 rounds of panning in different tumor models. These phage particles display surface peptides that potentially confer homing and cellular uptake capabilities.
Panning was conducted in 4T1 (ATCC CRL-2539) tumor allograft bearing mice. Tumors were resected 5-7 h post phage injection.

[2] = tested on: 4T1 (ATCC CRL-2539) tumor allograft; experiment: In vivo phage display panning, breast carcinoma model, tumor cell homing phage; set-up: species or system mouse; details: tumors resected 24 h post phage injection, 3-4 rounds of panning
Experimental: as §1
Panning was conducted in 4T1 (ATCC CRL-2539) tumor allograft bearing mice. Tumors were resected 24 h post phage injection.

[3] = tested on: SVR (ATCC CRL-2280, a murine endothelial cell line) tumor allograft; experiment: In vivo phage display panning, angiosarcoma model; set-up: species or system mouse; details: tumors resected 24 h post phage injection, 3-4 rounds of panning
Experimental: as §1
Panning was conducted in SVR (ATCC CRL-2280, a murine endothelial cell line) tumor allograft bearing mice. Tumors were resected 24 h post phage injection.

[4] = tested on: MMTV-HER2/neu (YD) Id1−/− tumor cells; experiment: MMTV-HER2/neu (YD) Id1−/− allograft model, osmotic pumps, with and without 17-AAG; assay type: in vivo, mouse
Source text: Proc Natl Acad Sci USA 100, 12337-42 (2003)), perhaps due to the requirement of Hsp90 for maintaining Hif1-alpha or HER2/neu stability. Id1-PCAOs were therefore tested in combination with 17-AAG in the MMTV-HER2/neu (YD) Id1-/- allograft model. The Id1-PCAO was delivered in this prolonged experiment via subcutaneously implanted osmotic pumps (7 nmol/d). 17-AAG was given by intraperitoneal injection according to an established protocol, on 3 consecutive days per week after tumor establishment. As controls, saline or the un-conjugated components of the Id1-PCAO (F3-peptide and Id1-AO each at 20 nmol/d) were administered. […] To further control for non-specific effects we repeated the experiment using the same tumor model and added […] which was delivered at the same rate as the Id1-PCAO (7 nmol/d) and the F3-peptide without addition of Id1-AO (20 nmol/d) as control substances. […] The decrease in Id1-positive cells after administration of Id1-PCAO alone was less dramatic than in the intravenous protocol described above. This might be due to the slight decrease in dosage and the changed route of administration (s.c. vs. i.v.). […] Alternatively, animals were implanted s.c. with osmotic pumps (Durect Corp., Cupertino, Calif.) that delivered 7 nmol/d Id1-PCAO (3.5 mg/kg BW) in TBS over a 14 day period. Controls received 20 nmol/d F3-peptide plus 20 nmol/d Id1-AO (in TBS) or TBS. 2×106 MMTV-HER2/neu (YD) Id1-/- tumor cells were injected into the left flank 24 h after implantation of the pumps. After the 14 days treatment period, pumps were replaced using a model with a work period of 7 days. […] Control animals received DMSO:EPL 1:1 i.p at the same schedule. Tumor size was measured using a calliper. Volume was calculated as V=(/6×longest diameter×perpendicular diameter2). Image acquisition and analysis: Epifluorescence, bright field and phase contrast images were acquired using Zeiss Axiostar 200 microscopes. Leica laser confocal microscopes were used for co-localisation studies. For quantification, large fields of the tissue sections were acquired using an automated image acquisition and montaging system (Zeiss Axiostar 200M microscope with MetaMorph Software, Molecular Devices, Sunnyvale, Calif.). […] Three or 4 large field images were used to quantify each section. Stained areas were quantified using MetaMorph or ImageJ software (http://rsb.info.nih.gov/ij/). Images were threshholded and stained area (CD31) was calculated or particles per field were counted (Id1 or Hif1 positive cells). To quantify extent of haemorrhage, H&E whole tumor sections were imaged with a 5× objective and evaluated using the colour threshold function of the Metamorph software.

[5] = tested on: tumor endothelium of high-grade malignant glioma; experiment: Accumulation of FITC-labeled Grp78-GMBS-ASId1 in high-grade malignant glioma mouse model; assay type: in vivo; details: retro-orbital injection, four hours post injection
Source text: In a further specific example, the therapeutic agent combines a Grp78 targeting peptide with an Id1 targeting antisense oligonucleotide. A therapeutic agent of this type was synthesized using the Grp-78 targeting peptide of Seq. ID No. 4, GMBS as the HBL, and Id1 antisense of Seq. ID No. 2, labeled with FITC and injected retro-orbitally into a mouse model with a high-grade malignant glioma. Four hours post injection the mouse was sacrificed, and tissue was processed for imaging.

Row | Compound | Frequency of enriched sequence [1] | Frequency of enriched sequence [2] | also measured
1 | 22 (GHSKAMY; Breast carcinoma tumor vascular homing probe) [compound 22] | 4/12 | – | –
2 | 21 (HTPMALE; Breast Carcinoma homing probe) [compound 21] | – | 1/12 | –
3 | 14 (ERVLMQV; Angiosarcoma homing probe) [compound 14] | – | – | Frequency of enriched sequence [3]: 1/15
4 | 13 (TSLKMQV; Angiosarcoma homing probe) [compound 13] | – | – | Frequency of enriched sequence [3]: 1/15
5 | 20 (EKNLTRP; Breast Carcinoma homing probe) [compound 20] | – | 1/12 | –
6 | 15 (KWGSNNL; Breast Carcinoma homing probe) [compound 15] | – | 4/12 | –
7 | 19 (TSMTSYR; Breast Carcinoma homing probe) [compound 19] | – | 1/12 | –
8 | 18 (KYESAPT; Breast Carcinoma homing probe) [compound 18] | – | 1/12 | –
9 | 11 (MFEPVLP; Angiosarcoma homing probe) [compound 11] | – | – | Frequency of enriched sequence [3]: 1/15
10 | 24 (NLLAPAG; Breast carcinoma tumor vascular homing probe) [compound 24] | 1/12 | – | –
11 | 23 (GHGASIS; Breast carcinoma tumor vascular homing probe) [compound 23] | 1/12 | – | –
12 | 30 (CPAGQNAHC) [compound 30] | 1/12 | – | –
13 | C=CCNC1=C2C[C@@H](C)C[C@H](OC)[C@H](O)[C@@H](C)/C=C(\C)[C@H](OC(N)=O)[C@@H](OC)/C=C\C=C(/C)C(=O)NC(=CC1=O)C2=O [17-AAG, 17-(allylamino)-17-demethoxygeldanamycin] | – | – | tumor growth, agent alone ([4]; Id1-PCAO 7 nmol/d s.c. pumps, F3 and Id1-AO each 20 nmol/d, 17-AAG i.p. 3 consecutive days per week, FIG. 7): delayed tumor growth; Hif1-alpha expression ([4]; mouse, in vivo): counteracted this response; Id1-positive endothelial cells in the tumor, agent alone ([4]; mouse, in vivo): decrease of Id1-positive endothelial cells in the tumor; vascular density ([4]; mouse, in vivo): decreased vascular density
14 | 25 (HDLPAVR; Breast carcinoma tumor vascular homing probe) [compound 25] | 1/12 | – | –
15 | 28 (CDPRNPNWC; Breast carcinoma tumor vascular homing probe) [compound 28] | 1/12 | – | –
16 | Grp78-GMBS-ASId1: Grp-78 targeting peptide of Seq. ID No. 4, GMBS as the HBL, Id1 antisense of Seq. ID No. 2, labeled with FITC (chain WIFPWIQL; antisense gcaccagctccttgaggcgugag; GMBS linker, FITC label; GRP78 homing peptide; antisense oligonucleotide targeting ID1.) | – | – | accumulation in imaged tissue [5]: accumulate around tumor blood vessels; blood brain barrier crossing [5]: crossed the blood brain barrier
17 | 26 (AMPLPVP; Breast carcinoma tumor vascular homing probe) [compound 26] | 1/12 | – | –
18 | 29 (CLPRHDPYC) [compound 29] | 1/12 | – | –
19 | 10 (FPGGYTP; Angiosarcoma homing probe) [compound 10] | – | – | Frequency of enriched sequence [3]: 11/15
20 | 27 (HESTWGP; Breast carcinoma tumor vascular homing probe) [compound 27] | 1/12 | – | –
21 | 12 (TLSKQST; Angiosarcoma homing probe) [compound 12] | – | – | Frequency of enriched sequence [3]: 1/15
22 | 17 (DSTRPHY; Breast Carcinoma homing probe) [compound 17] | – | 2/12 | –
23 | 16 (YSMPAPV; Breast Carcinoma homing probe) [compound 16] | – | 2/12 | –
